From patent US20230303549A1, “SUBSTITUTED HETEROARYLOXYPYRIDINES, THE SALTS THEREOF AND THEIR USE AS HERBICIDAL AGENTS” (Bayer Aktiengesellschaft, priority 2020, published 2023)

Assays:
Type in all cases: in vivo
Setaria viridis (SETVI) [1] = assay: Pre-emergence herbicide efficacy at 80 g/ha, greenhouse pot test; settings: visual scoring vs untreated control after about 3 weeks
Source text: (§1) Seeds of monocotyledonous and dicotyledonous weed plants and crop plants were placed in plastic or organic planting pots and covered with soil. The compounds of the invention, formulated in the form of wettable powders (WP) or as emulsion concentrates (EC), were then applied to the surface of the covering soil as aqueous suspension or emulsion with addition of 0.5% additive at a water application rate of […] (converted). After the treatment, the pots were placed in a greenhouse and kept under good growth conditions for the test plants. After about 3 weeks, the effect of the preparations was scored visually in comparison with untreated controls as percentages. For example, 100% activity=the plants have died, 0% activity=like control plants. Tables D1 to D12 below show the effects of selected compounds of the general formula (I) according to Table 1 on various harmful plants and an application rate corresponding to 80 g/ha, which were obtained by the experimental procedure mentioned above.

Veronica persica (VERPE) [2] = assay: as above; settings: visual scoring vs untreated control after about 3 weeks
Source text: as §1

[3] = test system: Alopecurus myosuroides (ALOMY); assay: as above; settings: visual scoring vs untreated control after about 3 weeks
Source text: as §1

[4] = test system: Abutilon theophrasti (ABUTH); assay: as above; settings: visual scoring vs untreated control after about 3 weeks
Source text: as §1

Viola tricolor (VIOTR) = assay: as above; settings: visual scoring vs untreated control after about 3 weeks
Source text: as §1

[5] = test system: Polygonum convolvulus (POLCO); assay: as above; settings: visual scoring vs untreated control after about 3 weeks
Source text: as §1

[6] = test system: Matricaria inodora (MATIN); assay: as above; settings: visual scoring vs untreated control after about 3 weeks
Source text: as §1

[7] = test system: Echinochloa crus-galli (ECHCG); assay: as above; settings: visual scoring vs untreated control after about 3 weeks
Source text: as §1

Ipomoea purpurea (PHBPU) = assay: as above; settings: visual scoring vs untreated control after about 3 weeks
Source text: as §1

[8] = test system: Amaranthus retroflexus (AMARE); assay: as above; settings: visual scoring vs untreated control after about 3 weeks
Source text: as §1

Setaria viridis (SETVI) [9] = assay: Post-emergence herbicidal efficacy at 80 g/ha, greenhouse pot test; settings: visual rating vs untreated control after about 3 weeks
Description: (§2) Seeds of monocotyledonous and dicotyledonous weeds and crop plants were placed in sandy loam in plastic or organic planting pots, covered with soil and cultivated in a greenhouse under controlled growth conditions. 2 to 3 weeks after sowing, the test plants were treated at the one-leaf stage. The compounds of the invention, formulated in the form of wettable powders (WP) or as emulsion concentrates (EC), were then sprayed onto the green parts of the plants as aqueous suspension or emulsion with addition of 0.5% additive at a water application rate of 600 l/ha (converted). After the test plants had been kept in the greenhouse under optimum growth conditions for about 3 weeks, the activity of the preparations was rated visually in comparison to untreated controls. For example, 100% activity=the plants have died, 0% activity=like control plants. Tables B1 to B6 below show the effects of selected compounds of the general formula (I) according to Table 1 on various harmful plants and an application rate corresponding to 80 g/ha, which were obtained by the experimental procedure mentioned above.

[10] = test system: Amaranthus retroflexus (AMARE); assay: as above; settings: visual rating vs untreated control after about 3 weeks
Description: as §2

Stellaria media (STEME) [11] = assay: Post-emergence herbicidal efficacy at 320 g/ha, greenhouse pot test; settings: visual rating vs untreated control after about 3 weeks
Procedure, shortened: (§3)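 Post-emergence foliar spray on one-leaf-stage weeds, 2 to 3 weeks from sowing, using WP or EC preparations with 0.5% additive. Damage was judged by eye after roughly 3 weeks compared with untreated controls.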

Veronica persica (VERPE) [12] = assay: as above; settings: 320 g/ha, visual rating vs untreated control after about 3 weeks
Procedure, shortened: as §3

[13] = test system: Abutilon theophrasti (ABUTH); assay: as above; settings: visual rating vs untreated control after about 3 weeks
Procedure, shortened: as §3

Poa annua (POAAN) [14] = assay: as above; settings: visual rating vs untreated control after about 3 weeks
Procedure, shortened: as §3

[15] = test system: Amaranthus retroflexus (AMARE); assay: as above; settings: visual rating vs untreated control after about 3 weeks
Procedure, shortened: as §3

Bassia scoparia (KCHSC) [16] = assay: as above; settings: visual rating vs untreated control after about 3 weeks
Procedure, shortened: as §3

Stellaria media (STEME) [17] = assay: Pre-emergence herbicide efficacy at 320 g/ha, greenhouse pot test; settings: visual scoring vs untreated control after about 3 weeks
Procedure, shortened: (§4)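 Visual percent activity versus untreated controls, rated roughly 3 weeks post-treatment in greenhouse (0% = like control, 100% = dead). Pre-emergence application to covering sandy loam soil as aqueous suspension/emulsion, 600 L/ha, plus 0.5% additive.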

Setaria viridis (SETVI) [18] = assay: as above; settings: visual scoring vs untreated control after about 3 weeks
Procedure, shortened: as §4

Veronica persica (VERPE) [19] = assay: as above; settings: visual scoring vs untreated control after about 3 weeks
Procedure, shortened: as §4

[20] = test system: Abutilon theophrasti (ABUTH); assay: as above; settings: visual scoring vs untreated control after about 3 weeks
Procedure, shortened: as §4

[21] = test system: Matricaria inodora (MATIN); assay: as above; settings: visual scoring vs untreated control after about 3 weeks
Procedure, shortened: as §4

Poa annua (POAAN) [22] = assay: as above; settings: visual scoring vs untreated control after about 3 weeks
Procedure, shortened: as §4

[23] = test system: Echinochloa crus-galli (ECHCG); assay: as above; settings: visual scoring vs untreated control after about 3 weeks
Procedure, shortened: as §4

[24] = test system: Amaranthus retroflexus (AMARE); assay: as above; settings: visual scoring vs untreated control after about 3 weeks
Procedure, shortened: as §4

Bassia scoparia (KCHSC) [25] = assay: as above; settings: dosage 1280 g/ha in Table C6, visual scoring after about 3 weeks
Procedure, shortened: as §4

[26] = test system: Polygonum convolvulus (POLCO); assay: Post-emergence herbicidal efficacy at 80 g/ha, greenhouse pot test; settings: visual rating vs untreated control after about 3 weeks
Description: as §2

Lolium rigidum (LOLRI) = assay: Pre-emergence herbicide efficacy at 320 g/ha, greenhouse pot test; settings: visual scoring vs untreated control after about 3 weeks
Procedure, shortened: as §4

Row | Compound | Pre-emergence efficacy against Setaria viridis (SETVI) (Setaria viridis (SETVI) [1]) | Pre-emergence efficacy against Alopecurus myosuroides (ALOMY) [3] | Pre-emergence efficacy against Abutilon theophrasti (ABUTH) [4] | Pre-emergence efficacy against Viola tricolor (VIOTR) (Viola tricolor (VIOTR)) | Pre-emergence efficacy against Polygonum convolvulus (POLCO) [5] | Pre-emergence efficacy against Matricaria inodora (MATIN) [6] | Pre-emergence efficacy against Echinochloa crus-galli (ECHCG) [7] | Pre-emergence efficacy against Ipomoea purpurea (PHBPU) (Ipomoea purpurea (PHBPU)) | Pre-emergence efficacy against Amaranthus retroflexus (AMARE) [8] | Post-emergence efficacy against Setaria viridis (SETVI) (Setaria viridis (SETVI) [9]) | Post-emergence efficacy against Amaranthus retroflexus (AMARE) [10] | Post-emergence action against Stellaria media (STEME) (Stellaria media (STEME) [11]) | Post-emergence efficacy against Veronica persica (VERPE) (Veronica persica (VERPE) [12]) | Post-emergence efficacy against Abutilon theophrasti (ABUTH) [13] | Post-emergence efficacy against Poa annua (POAAN) (Poa annua (POAAN) [14]) | Post-emergence efficacy against Amaranthus retroflexus (AMARE) [15] | Pre-emergence efficacy against Stellaria media (STEME) (Stellaria media (STEME) [17]) | Pre-emergence efficacy against Setaria viridis (SETVI) (Setaria viridis (SETVI) [18]) | Pre-emergence efficacy against Veronica persica (VERPE) (Veronica persica (VERPE) [19]) | Pre-emergence efficacy against Abutilon theophrasti (ABUTH) [20] | also measured
1 | Cc1cc(C)c(-n2cc(Br)cn2)c(Oc2ncc(F)cn2)n1 [Example I-277] | 100% | 80% | 90% | 100% | 100% | 100% | 100% | 100% | 100% | 80% | 80% | 90% | 90% | 90% | 90% | 100% | 100% | 100% | 100% | 100% | Pre-emergence efficacy against Veronica persica (VERPE) (Veronica persica (VERPE) [2]): 80%; Post-emergence efficacy against Bassia scoparia (KCHSC) (Bassia scoparia (KCHSC) [16]): 100%; Pre-emergence efficacy against Matricaria inodora (MATIN) [21]: 90%; Pre-emergence efficacy against Poa annua (POAAN) (Poa annua (POAAN) [22]): 100%; Pre-emergence efficacy against Echinochloa crus-galli (ECHCG) [23]: 100%; Pre-emergence efficacy against Amaranthus retroflexus (AMARE) [24]: 100%; Pre-emergence efficacy against Bassia scoparia (KCHSC) (Bassia scoparia (KCHSC) [25]): 100%
2 | Cc1cc(C)c(-n2cc(I)cn2)c(Oc2ncc(F)cn2)n1 [Example I-294] | 100% | 90% | 90% | 100% | 90% | 100% | 90% | 100% | 100% | 90% | 80% | 100% | 100% | 90% | 90% | 100% | 100% | 100% | 100% | 100% | Post-emergence efficacy against Polygonum convolvulus (POLCO) [26]: 80%; Pre-emergence efficacy against Lolium rigidum (LOLRI) (Lolium rigidum (LOLRI)): 100%; Pre-emergence efficacy against Matricaria inodora (MATIN) [21]: 100%; Pre-emergence efficacy against Poa annua (POAAN) (Poa annua (POAAN) [22]): 100%; Pre-emergence efficacy against Echinochloa crus-galli (ECHCG) [23]: 100%; Pre-emergence efficacy against Amaranthus retroflexus (AMARE) [24]: 100%; Pre-emergence efficacy against Bassia scoparia (KCHSC) (Bassia scoparia (KCHSC) [25]): 100%
